Assay results published in ChEMBL document CHEMBL1149973, “Inhibitory stereochemistry of N-chloroacetyl-N-hydroxyleucine methyl ester for thermolysin” (Bioorg Med Chem Lett, 1996).

How the values were obtained:
[1] = molecular target: T1, Thermolysin (Bacillus thermoproteolyticus) (UniProt P00800); assay: Inhibitory activity against thermolysin expressed as kinact
T1 sequence (whole entry): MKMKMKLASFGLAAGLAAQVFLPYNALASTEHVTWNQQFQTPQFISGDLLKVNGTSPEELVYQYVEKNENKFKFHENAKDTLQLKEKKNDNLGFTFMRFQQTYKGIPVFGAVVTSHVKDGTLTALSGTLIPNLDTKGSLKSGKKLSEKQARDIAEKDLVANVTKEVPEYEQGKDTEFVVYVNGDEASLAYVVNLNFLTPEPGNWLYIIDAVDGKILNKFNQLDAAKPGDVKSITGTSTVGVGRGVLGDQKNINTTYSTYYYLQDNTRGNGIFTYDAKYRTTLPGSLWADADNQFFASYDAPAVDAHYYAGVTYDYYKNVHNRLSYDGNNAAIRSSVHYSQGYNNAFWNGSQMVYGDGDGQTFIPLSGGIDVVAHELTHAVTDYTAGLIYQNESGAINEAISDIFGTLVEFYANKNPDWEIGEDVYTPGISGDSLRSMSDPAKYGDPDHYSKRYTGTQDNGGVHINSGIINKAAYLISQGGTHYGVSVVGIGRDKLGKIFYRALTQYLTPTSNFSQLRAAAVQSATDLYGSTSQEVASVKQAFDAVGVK

Thermolysin = molecular target: T2, Thermolysin (Bacillus thermoproteolyticus, UniProt P00800); assay: Inhibitory activity against thermolysin expressed as Ki
T2 sequence (P00800 whole entry): T1 sequence (whole entry)

SMILES	K inact [1]	Ki (Thermolysin)
COC(=O)[C@H](CC(C)C)N(O)C(=O)CCl	0.009 s⁻¹	4.5 mM
COC(=O)C(CC(C)C)N(O)C(=O)CCl (centres undefined)	0.0075 s⁻¹	7.5 mM
